Among the test systems are ACHN; BT-549; EKVX; HCT-15; HL-60; HOP-62; K562; MDA-N; NCI-H226; NCI-H23; NCI/ADR-RES; OVCAR-4; OVCAR-8; SF-268; SF-539; SK-MEL-5; SNB-19; SW-620; T47D; UACC-62.
Common to all, as to assay: NCI tumour cell line growth inhibition, 48 h

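1) Cells in 96-well plates. 2) Compound, 48 h, 5 concentrations. 3) Linear interpolation between surrounding doses. 4) Unreached endpoint = highest concentration. GI50 marks 50% less growth.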 Activity calls are given as the source filed them. No stated cut-off is given here; in the data, active = GI50 up to about 1.1 µM and inactive = higher.

Results on 10 molecules are retold here after ChEMBL document CHEMBL1201862, “PubChem BioAssay data set” (2004).

For the molecule `O=c1c(-c2ccc(O)cc2)coc2cc(OC3OC(CO)C(O)C(O)C3O)cc(O)c12` (centres undefined), the GI50 in the test with ACHN is 54.5 µM (inactive); in the test with BT-549 it was 58.5 µM (inactive); in the test with EKVX it was 38.8 µM (inactive); in the test with HCT-15 it was greater than 100 µM; with HL-60, > 10 µM (inactive); in the test on HOP-62 it was > 10 µM (inactive). For the same molecule, the GI50 with K562 was > 10 µM (inactive); in the test with MDA-N it was > 100 µM (inactive); in the test with NCI-H226, > 100 µM (inactive); in the test with NCI-H23 it was > 10 µM (inactive); with NCI/ADR-RES, > 10 µM (inactive); in the test on OVCAR-4, > 10 µM (inactive). Also, the GI50 is > 100 µM (inactive) with OVCAR-8; 41.7 µM (inactive) with SF-268; 31.1 µM (inactive) with SF-539; > 10 µM (inactive) with SK-MEL-5; > 100 µM (inactive) with SNB-19; > 10 µM (inactive) in the test with SW-620. Further, the figures for the GI50 in the test on T47D and with UACC-62 were > 10 µM (inactive) and 81.3 µM (inactive), respectively.

Consider `CC(=O)OCC1OC(SC2OC(COC(C)=O)C(OC(C)=O)C(OC(C)=O)C2OC(C)=O)C(OC(C)=O)C(OC(C)=O)C1OC(C)=O` (centres undefined), for which the GI50 in the test on ACHN was 52.5 µM (inactive); with BT-549, > 100 µM (inactive); in the test with EKVX, > 100 µM (inactive); with HCT-15, greater than 100 µM; in the test with HL-60, > 100 µM (inactive); with HOP-62, > 100 µM (inactive). In addition, the GI50 in the test with K562, in the test with MDA-N, in the test on NCI-H226, with NCI-H23, in the test with NCI/ADR-RES and with OVCAR-4 was > 100 µM (inactive) throughout. In addition, the GI50 in the test with OVCAR-8, in the test with SF-268, with SF-539, with SK-MEL-5, with SNB-19 and in the test with SW-620 was > 100 µM (inactive) each time. Besides, the GI50 with T47D and in the test with UACC-62 was > 100 µM (inactive) throughout.

Consider `O=C1Nc2ccccc2C(=O)/C1=C/NC(=S)NC1CCCCC1`, for which the GI50 was > 100 µM (inactive) in the test with ACHN; > 100 µM (inactive) in the test with BT-549; > 100 µM (inactive) with EKVX; greater than 100 µM in the test with HCT-15; > 100 µM (inactive) in the test with HL-60; > 100 µM (inactive) in the test with HOP-62. In addition, the GI50 in the test on K562, with MDA-N, in the test with NCI-H226, in the test on NCI-H23, with NCI/ADR-RES and in the test with OVCAR-4 was > 100 µM (inactive) throughout. Moreover, the GI50 in the test on OVCAR-8, in the test on SF-268, in the test on SF-539, with SK-MEL-5, in the test with SNB-19 and in the test on SW-620 was > 100 µM (inactive) each time. Also, the GI50 with T47D and with UACC-62 was > 100 µM (inactive) in each case.

For the molecule `c1ccc([B-]2(c3ccccc3)OCCc3cccc[n+]32)cc1`, the GI50 in the test with ACHN is 37.9 µM (inactive); in the test on BT-549 it was 31.6 µM (inactive); with EKVX, 91.8 µM (inactive); in the test on HCT-15 it was 44.5 µM; with HL-60 it was 40.8 µM (inactive); in the test on HOP-62, > 100 µM (inactive). For the same molecule, the GI50 in the test with K562 is > 100 µM (inactive); in the test with MDA-N, 50.2 µM (inactive); with NCI-H226, 50.1 µM (inactive); in the test with NCI-H23, 48.8 µM (inactive); in the test on NCI/ADR-RES it was 59 µM (inactive); in the test with OVCAR-4 it was 82.4 µM (inactive). Moreover, the GI50 was 75 µM (inactive) in the test on OVCAR-8; 97.5 µM (inactive) in the test on SF-268; 28.5 µM (inactive) with SF-539; 41.2 µM (inactive) in the test on SK-MEL-5; > 100 µM (inactive) with SNB-19; 51.9 µM (inactive) in the test on SW-620. The results for the GI50 in the test with T47D and in the test with UACC-62 were 41 µM (inactive) and 58.3 µM (inactive), respectively.

Turning to `C/C(=N/NC(=S)Nc1ccccc1Cl)c1ccccn1`, the GI50 with ACHN is 0.0402 µM (active); with BT-549, 4.39 µM (inactive); with EKVX, 0.098 µM (active); in the test on HCT-15 it was less than 0.0165 µM; in the test on HL-60, < 0.0113 µM (active); with HOP-62 it was < 0.0415 µM (active). Besides, the GI50 in the test on K562 was < 0.01 µM (active); in the test with MDA-N it was 0.452 µM (active); in the test on NCI-H226 it was < 0.0401 µM (active); in the test with NCI-H23 it was < 0.0161 µM (active); in the test with NCI/ADR-RES, 0.0914 µM (active); in the test with OVCAR-4 it was 0.249 µM (active). Besides, the GI50 in the test with OVCAR-8 is 0.0206 µM (active); with SF-268, 0.0843 µM (active); with SF-539, 1.11 µM (active); with SK-MEL-5, 0.0753 µM (active); in the test with SNB-19, 1.79 µM (inactive); with SW-620, < 0.0168 µM (active). The GI50 in the test with T47D was < 0.0371 µM (active); with UACC-62, 0.173 µM (active).

Consider `N#Cc1nc(C#N)n(C(=O)c2ccccc2)c1NC(=O)c1ccccc1`, for which the GI50 in the test on ACHN is > 100 µM (inactive); in the test with BT-549 it was > 100 µM (inactive); in the test on EKVX, > 100 µM (inactive); in the test on HCT-15, greater than 100 µM; in the test on HL-60, > 100 µM (inactive); in the test on HOP-62, > 100 µM (inactive). Further, the GI50 in the test on K562, in the test with MDA-N, with NCI-H226, in the test with NCI-H23, in the test on NCI/ADR-RES and in the test on OVCAR-4 was > 100 µM (inactive) in each case. Also, the GI50 with OVCAR-8, with SF-268, in the test with SF-539, in the test with SK-MEL-5, in the test with SNB-19 and with SW-620 was > 100 µM (inactive) throughout. Besides, the GI50 in the test on T47D and in the test with UACC-62 was > 100 µM (inactive) each time.

In the case of `C#CCOC(=O)C(N)CCCNC(=N)N` (centres undefined), the GI50 is > 100 µM (inactive) in the test on ACHN; > 100 µM (inactive) in the test on BT-549; > 100 µM (inactive) in the test with EKVX; greater than 100 µM in the test on HCT-15; > 100 µM (inactive) with HL-60; > 100 µM (inactive) with HOP-62. The GI50 in the test with MDA-N, with NCI-H226, in the test with NCI-H23, in the test on NCI/ADR-RES, in the test on OVCAR-4 and in the test on OVCAR-8 was > 100 µM (inactive) each time. Further, the GI50 in the test on SF-268, in the test with SF-539, in the test with SK-MEL-5, with SNB-19, with SW-620 and with T47D was > 100 µM (inactive) each time.

With `CCOC(=O)NN(C(=O)OCC)c1c(C)cc(C)cc1C`, the GI50 is > 100 µM (inactive) in the test with BT-549; > 100 µM (inactive) in the test on EKVX; greater than 100 µM with HCT-15; > 100 µM (inactive) with HL-60; > 100 µM (inactive) in the test on K562; > 100 µM (inactive) with MDA-N. The GI50 in the test with NCI-H226, in the test on NCI-H23, with NCI/ADR-RES, in the test on OVCAR-4, in the test on OVCAR-8 and in the test with SF-268 was > 100 µM (inactive) each time. Besides, the GI50 with SF-539, in the test with SK-MEL-5, in the test with SNB-19, in the test on SW-620, in the test with T47D and with UACC-62 was > 100 µM (inactive) each time.

For the molecule `CNCC(SC)c1ccc(O)c(O)c1` (centres undefined), the GI50 with ACHN was 17.7 µM (inactive); with BT-549 it was 16.6 µM (inactive); in the test on EKVX, 15.8 µM (inactive); with HCT-15 it was 30.8 µM; in the test on HL-60, 12.9 µM (inactive); in the test on HOP-62, 36.4 µM (inactive). In addition, the GI50 was 23.7 µM (inactive) in the test with K562; 18.5 µM (inactive) in the test on MDA-N; > 100 µM (inactive) with NCI-H226; 31 µM (inactive) with NCI-H23; 34.9 µM (inactive) in the test on NCI/ADR-RES; 17 µM (inactive) in the test with OVCAR-4. For the same molecule, the GI50 was 19.2 µM (inactive) in the test with OVCAR-8; 38.1 µM (inactive) in the test with SF-268; 52.8 µM (inactive) with SK-MEL-5; > 100 µM (inactive) in the test with SNB-19; 19.4 µM (inactive) in the test with SW-620; 23.6 µM (inactive) in the test on T47D. For the same molecule, the GI50 in the test with UACC-62 was 41.6 µM (inactive).

On to `O=C1Oc2ccccc2C1C/C(=N\Nc1ccccc1)c1ccccc1O` (centres undefined), for which the GI50 in the test with ACHN was 16.6 µM (inactive); in the test with BT-549 it was 28.6 µM (inactive); in the test with EKVX, 26.5 µM (inactive); in the test on HCT-15 it was 34.3 µM; with HL-60, 34.2 µM (inactive); with HOP-62, 53.3 µM (inactive). For the same molecule, the GI50 is 44.5 µM (inactive) in the test on MDA-N; 28.8 µM (inactive) in the test with NCI-H226; 22.2 µM (inactive) in the test on NCI-H23; 20.8 µM (inactive) in the test on NCI/ADR-RES; 32.7 µM (inactive) with OVCAR-4; 32.4 µM (inactive) with OVCAR-8. Besides, the GI50 in the test on SF-268 was 25.7 µM (inactive); in the test with SF-539, 53 µM (inactive); in the test with SK-MEL-5 it was 33.9 µM (inactive); in the test on SNB-19, > 100 µM (inactive); with SW-620, 29.9 µM (inactive); in the test on T47D, 11.3 µM (inactive). For the same molecule, the GI50 with UACC-62 is 33.9 µM (inactive).
